In ChEMBL document CHEMBL2311309, “Venezuelines A-G, new phenoxazine-based alkaloids and aminophenols from Streptomyces venezuelae and the regulation of gene target Nur77” (Bioorg Med Chem Lett, 2013):
Activity calls are given as the source filed them. No cut-off for these calls is given here.

System: not listed separately
Test: Cytotoxicity against human NIH-H460 cells by MTT method
Format: functional, cell-based
Conditions: not given

| SMILES | IC50 |
| --- | --- |
| CC(=O)Nc1cc2nc3cc(CO)ccc3oc-2cc1=O [EXFOLIAZONE] | 13.6 µM |
| COCc1ccc(O)c(NC(C)=O)c1 [VNEZUELINE G] | > 50 µg/mL |
| CC(=O)Nc1cc(COCc2ccc(O)c(NC(C)=O)c2)ccc1O [VNEZUELINE F] | > 50 µg/mL |
| CCCC(=O)OCc1ccc2oc3cc(=O)c(NC(C)=O)cc-3nc2c1 [VNEZUELINE E] | > 30 µg/mL |
| CC(=O)Nc1cc(Cc2cc3oc4cc(=O)c(NC(C)=O)cc-4nc3cc2CO)ccc1O [VNEZUELINE A] | > 30 µg/mL |
| CC(=O)Nc1cc2c(cc1OC(=O)CO)Oc1ccc(CO)cc1N2 [VNEZUELINE C] | > 50 µg/mL |
| O=C(CO)Nc1cc2nc3cc(CO)ccc3oc-2cc1=O [CHANDRANANIMYCIN D] | > 30 µg/mL |
| O=C(CO)Nc1cc2c(cc1OC(=O)CO)Oc1ccc(CO)cc1N2 [VNEZUELINE D] | > 50 µg/mL |
| O=c1[nH]cc(F)c(=O)[nH]1 [FLUOROURACIL] | 7.12 µM |
| CC(=O)Nc1cc2nc3cc(C(=O)O)ccc3oc-2cc1=O [CARBOXYEXFOLIAZONE] | > 30 µg/mL |
| O=C1NC2=Nc3cc(CO)ccc3O[C@]23[C@H](O)CC[C@H]13 [VNEZUELINE B] | 9.67 µM |

System: NIH-H460
Test: Induction of nur77 gene expression in human NIH-H460 cells after 6 to 12 hrs by RT-PCR analysis
Format: functional, cell-based
Conditions: not given

| SMILES | Activity |
| --- | --- |
| CC(=O)Nc1cc2nc3cc(CO)ccc3oc-2cc1=O [EXFOLIAZONE] | Dose-dependent effect |

System: NIH-H460
Test: Induction of nur77 gene expression in human NIH-H460 cells at 1 to 10 uM after 3 hrs by RT-PCR analysis
Format: functional, cell-based
Conditions: not given

| SMILES | Activity |
| --- | --- |
| O=C(CO)Nc1cc2c(cc1OC(=O)CO)Oc1ccc(CO)cc1N2 [VNEZUELINE D] | inactive |

System: HCT-8
Test: Cytotoxicity against human HCT8 cells by MTT method
Format: functional, cell-based
Conditions: not given

| SMILES | IC50 |
| --- | --- |
| CC(=O)Nc1cc2nc3cc(CO)ccc3oc-2cc1=O [EXFOLIAZONE] | 4.89 µM |
| COCc1ccc(O)c(NC(C)=O)c1 [VNEZUELINE G] | > 50 µg/mL |
| CC(=O)Nc1cc(COCc2ccc(O)c(NC(C)=O)c2)ccc1O [VNEZUELINE F] | > 50 µg/mL |
| CCCC(=O)OCc1ccc2oc3cc(=O)c(NC(C)=O)cc-3nc2c1 [VNEZUELINE E] | > 30 µg/mL |
| CC(=O)Nc1cc(Cc2cc3oc4cc(=O)c(NC(C)=O)cc-4nc3cc2CO)ccc1O [VNEZUELINE A] | > 30 µg/mL |
| CC(=O)Nc1cc2c(cc1OC(=O)CO)Oc1ccc(CO)cc1N2 [VNEZUELINE C] | > 50 µg/mL |
| O=C(CO)Nc1cc2nc3cc(CO)ccc3oc-2cc1=O [CHANDRANANIMYCIN D] | > 30 µg/mL |
| O=C(CO)Nc1cc2c(cc1OC(=O)CO)Oc1ccc(CO)cc1N2 [VNEZUELINE D] | > 50 µg/mL |
| O=c1[nH]cc(F)c(=O)[nH]1 [FLUOROURACIL] | 5.38 µM |
| CC(=O)Nc1cc2nc3cc(C(=O)O)ccc3oc-2cc1=O [CARBOXYEXFOLIAZONE] | > 30 µg/mL |
| O=C1NC2=Nc3cc(CO)ccc3O[C@]23[C@H](O)CC[C@H]13 [VNEZUELINE B] | 5.74 µM |

System: NIH-H460
Test: Induction of nur77 gene expression in human NIH-H460 cells at 1 uM within 12 hrs by RT-PCR analysis
Format: functional, cell-based
Conditions: not given

| SMILES | Activity |
| --- | --- |
| CC(=O)Nc1cc2nc3cc(CO)ccc3oc-2cc1=O [EXFOLIAZONE] | Active |

System: BGC-823
Test: Cytotoxicity against human BGC823 cells by MTT method
Format: functional, cell-based
Conditions: not given

| SMILES | IC50 |
| --- | --- |
| CC(=O)Nc1cc2nc3cc(CO)ccc3oc-2cc1=O [EXFOLIAZONE] | 3.4 µM |
| COCc1ccc(O)c(NC(C)=O)c1 [VNEZUELINE G] | > 50 µg/mL |
| CC(=O)Nc1cc(COCc2ccc(O)c(NC(C)=O)c2)ccc1O [VNEZUELINE F] | > 50 µg/mL |
| CCCC(=O)OCc1ccc2oc3cc(=O)c(NC(C)=O)cc-3nc2c1 [VNEZUELINE E] | > 30 µg/mL |
| CC(=O)Nc1cc(Cc2cc3oc4cc(=O)c(NC(C)=O)cc-4nc3cc2CO)ccc1O [VNEZUELINE A] | > 30 µg/mL |
| CC(=O)Nc1cc2c(cc1OC(=O)CO)Oc1ccc(CO)cc1N2 [VNEZUELINE C] | > 50 µg/mL |
| O=C(CO)Nc1cc2nc3cc(CO)ccc3oc-2cc1=O [CHANDRANANIMYCIN D] | > 30 µg/mL |
| O=C(CO)Nc1cc2c(cc1OC(=O)CO)Oc1ccc(CO)cc1N2 [VNEZUELINE D] | > 50 µg/mL |
| O=c1[nH]cc(F)c(=O)[nH]1 [FLUOROURACIL] | 3.84 µM |
| CC(=O)Nc1cc2nc3cc(C(=O)O)ccc3oc-2cc1=O [CARBOXYEXFOLIAZONE] | > 30 µg/mL |
| O=C1NC2=Nc3cc(CO)ccc3O[C@]23[C@H](O)CC[C@H]13 [VNEZUELINE B] | 6.78 µM |

System: not listed separately
Test: Cytotoxicity against human […] cells by MTT method
Format: functional, cell-based
Conditions: not given

| SMILES | IC50 |
| --- | --- |
| CC(=O)Nc1cc2nc3cc(CO)ccc3oc-2cc1=O [EXFOLIAZONE] | > 10 µM |
| COCc1ccc(O)c(NC(C)=O)c1 [VNEZUELINE G] | > 50 µg/mL |
| CC(=O)Nc1cc(COCc2ccc(O)c(NC(C)=O)c2)ccc1O [VNEZUELINE F] | > 50 µg/mL |
| CCCC(=O)OCc1ccc2oc3cc(=O)c(NC(C)=O)cc-3nc2c1 [VNEZUELINE E] | > 30 µg/mL |
| CC(=O)Nc1cc(Cc2cc3oc4cc(=O)c(NC(C)=O)cc-4nc3cc2CO)ccc1O [VNEZUELINE A] | > 30 µg/mL |
| CC(=O)Nc1cc2c(cc1OC(=O)CO)Oc1ccc(CO)cc1N2 [VNEZUELINE C] | > 50 µg/mL |
| O=C(CO)Nc1cc2nc3cc(CO)ccc3oc-2cc1=O [CHANDRANANIMYCIN D] | > 30 µg/mL |
| O=C(CO)Nc1cc2c(cc1OC(=O)CO)Oc1ccc(CO)cc1N2 [VNEZUELINE D] | > 50 µg/mL |
| O=c1[nH]cc(F)c(=O)[nH]1 [FLUOROURACIL] | 3.85 µM |
| CC(=O)Nc1cc2nc3cc(C(=O)O)ccc3oc-2cc1=O [CARBOXYEXFOLIAZONE] | > 30 µg/mL |
| O=C1NC2=Nc3cc(CO)ccc3O[C@]23[C@H](O)CC[C@H]13 [VNEZUELINE B] | > 10 µM |

System: NIH-H460
Test: Induction of nur77 gene expression in human NIH-H460 cells at 10 uM within 6 hrs by RT-PCR analysis
Format: functional, cell-based
Conditions: not given

| SMILES | Activity |
| --- | --- |
| CC(=O)Nc1cc2nc3cc(CO)ccc3oc-2cc1=O [EXFOLIAZONE] | Active |

System: NIH-H460
Test: Induction of nur77 gene expression in human NIH-H460 cells after 3 hrs by RT-PCR analysis
Format: functional, cell-based
Conditions: not given

| SMILES | Activity |
| --- | --- |
| O=C1NC2=Nc3cc(CO)ccc3O[C@]23[C@H](O)CC[C@H]13 [VNEZUELINE B] | Dose-dependent effect |

System: A549
Test: Cytotoxicity against human A549 cells by MTT method
Format: functional, cell-based
Conditions: not given

| SMILES | IC50 |
| --- | --- |
| CC(=O)Nc1cc2nc3cc(CO)ccc3oc-2cc1=O [EXFOLIAZONE] | 9.16 µM |
| COCc1ccc(O)c(NC(C)=O)c1 [VNEZUELINE G] | > 50 µg/mL |
| CC(=O)Nc1cc(COCc2ccc(O)c(NC(C)=O)c2)ccc1O [VNEZUELINE F] | > 50 µg/mL |
| CCCC(=O)OCc1ccc2oc3cc(=O)c(NC(C)=O)cc-3nc2c1 [VNEZUELINE E] | > 30 µg/mL |
| CC(=O)Nc1cc(Cc2cc3oc4cc(=O)c(NC(C)=O)cc-4nc3cc2CO)ccc1O [VNEZUELINE A] | > 30 µg/mL |
| CC(=O)Nc1cc2c(cc1OC(=O)CO)Oc1ccc(CO)cc1N2 [VNEZUELINE C] | > 50 µg/mL |
| O=C(CO)Nc1cc2nc3cc(CO)ccc3oc-2cc1=O [CHANDRANANIMYCIN D] | > 30 µg/mL |
| O=C(CO)Nc1cc2c(cc1OC(=O)CO)Oc1ccc(CO)cc1N2 [VNEZUELINE D] | > 50 µg/mL |
| O=c1[nH]cc(F)c(=O)[nH]1 [FLUOROURACIL] | 1.54 µM |
| CC(=O)Nc1cc2nc3cc(C(=O)O)ccc3oc-2cc1=O [CARBOXYEXFOLIAZONE] | > 30 µg/mL |
| O=C1NC2=Nc3cc(CO)ccc3O[C@]23[C@H](O)CC[C@H]13 [VNEZUELINE B] | 7.52 µM |

System: A2780
Test: Cytotoxicity against human A2780 cells by MTT method
Format: functional, cell-based
Conditions: not given

| SMILES | IC50 |
| --- | --- |
| CC(=O)Nc1cc2nc3cc(CO)ccc3oc-2cc1=O [EXFOLIAZONE] | 2.52 µM |
| COCc1ccc(O)c(NC(C)=O)c1 [VNEZUELINE G] | > 50 µg/mL |
| CC(=O)Nc1cc(COCc2ccc(O)c(NC(C)=O)c2)ccc1O [VNEZUELINE F] | > 50 µg/mL |
| CCCC(=O)OCc1ccc2oc3cc(=O)c(NC(C)=O)cc-3nc2c1 [VNEZUELINE E] | > 30 µg/mL |
| CC(=O)Nc1cc(Cc2cc3oc4cc(=O)c(NC(C)=O)cc-4nc3cc2CO)ccc1O [VNEZUELINE A] | > 30 µg/mL |
| CC(=O)Nc1cc2c(cc1OC(=O)CO)Oc1ccc(CO)cc1N2 [VNEZUELINE C] | > 50 µg/mL |
| O=C(CO)Nc1cc2nc3cc(CO)ccc3oc-2cc1=O [CHANDRANANIMYCIN D] | > 30 µg/mL |
| O=C(CO)Nc1cc2c(cc1OC(=O)CO)Oc1ccc(CO)cc1N2 [VNEZUELINE D] | > 50 µg/mL |
| O=c1[nH]cc(F)c(=O)[nH]1 [FLUOROURACIL] | 5.4 µM |
| CC(=O)Nc1cc2nc3cc(C(=O)O)ccc3oc-2cc1=O [CARBOXYEXFOLIAZONE] | > 30 µg/mL |
| O=C1NC2=Nc3cc(CO)ccc3O[C@]23[C@H](O)CC[C@H]13 [VNEZUELINE B] | 6.57 µM |

System: NIH-H460
Test: Induction of nur77 gene expression in human NIH-H460 cells at 1 to 10 uM by RT-PCR analysis
Format: functional, cell-based
Conditions: TDE = time-dependent effect

| SMILES | Activity |
| --- | --- |
| CC(=O)Nc1cc2nc3cc(CO)ccc3oc-2cc1=O [EXFOLIAZONE] | tde |
